Data as given in paper PMC7756392, “Syntheses of Thailandepsin B Pseudo‐Natural Products: Access to New Highly Potent HDAC Inhibitors via Late‐Stage Modification” (Chemistry (Weinheim an Der Bergstrasse, Germany), 2020).

Experiments:
Format in all cases: cell-based
HeLa cells = assay: MTS cell viability assay, HeLa; details: for GI50 (in words): MTS assay, 72 h
Experimental: hHDAC1/6: Activity assays were performed in OptiPlateTM-96 F black microplates (PerkinElmer). Commercial available enzymes (human recombinant HDAC1; BPS Bioscience, catalog no. 50051 and human recombinant HDAC6; BPS Bioscience, catalog no. 50006) were used. Total assay volume of 60 µL contains 42 µl of assay buffer (50 mM Tris -HCl, pH 8.0, 137 mM NaCl, 2.7 mM KCl, 1 mM MgCl2, 0.2 mM TCEP and 1 mg/mL bovine serum albumin), 10 µL of enzyme solution in assay buffer, 3 µL of increasing concentrations of inhibitors in DMSO and 5 μL of the fluorogenic substrate ZMAL (Z -(Ac)Lys-AMC) (126 μM). After incubation (90 min, 37 °C) 60 µL of stop solution, containing 5 μL Trichostatin A (TSA) (33 μM) and 10 μL trypsin (6 mg/mL) in trypsin buffer (Tris-HCl 50 mM, pH 8.0, NaCl 100 mM), were added. After incubation (30 min at 37 °C) fluorescence signal (λex = 390 nm, λem = 460 nm) was measured on a BMG LABTECH POLARstar OPTIMA plate reader (BMG Labtechnologies, Germany).10 hHDAC8: Enzyme was obtained from cooperation partners (Romier).11 Assay was performed as described before. […] After incubation (30 min at 37 °C) fluorescence signal was determined as mentioned for HDAC1/6.12 […]
Cell proliferation was determined by using the Celltiter 96 AQueous nonradioactive Proliferation Assay (Promega). After 72h of incubation time with inhibitor or DMSO, 20 µL of a mixture (20:1) consisting of MTS (3-(4,5-dimethylthiazol-2-yl)-5-(3-carboxymethoxyphenyl)-2-(4-sulfophenyl-2H-tetrazolium) and PMS (phenazine methosulfate) were added to each well. Absorption was measured after another 2-4 h with a BMG LABTECH POLARstar OPTIMA plate reader (BMG Labtechnologies, Germany).
Experiments were performed in triplicates and GI50 values were calculated using the software Origin 2019. […]
CO2. […] After another 20 min of incubation, the fluorescence signal (λex = 390 nm, λem = 460 nm) was measured on a BMG LABTECH POLARstar OPTIMA plate reader (BMG Labtechnologies, Germany). […]

HDAC in HL60 cells = assay: Cellular HDAC activity assay, HL60; details: read-out: cellular HDAC inhibition IC50
Experimental: Cellular trypsin-based activity assay:13 1 x 10^4 Hela cells (50 µL) were seeded in sterile dark 96-well microtiter plates (Perkin Elmer) and incubated overnight at 37 °C and 5% CO2 atmosphere. The next day, the medium was aspirated and the cells were incubated with different inhibitor concentrations or DMSO, diluted in 50 µL m edium without supplements and phenol red. After 2 h incubation time, 50 µL of the HDAC substrate MAL (Boc -Lys(Ac)-AMC) were added to a final concentration of 150 µM and the plate was incubated for 2 h at 37°C and 5%
CO2. The reaction was stopped by adding 50 µL of stop solution (50 mM Tris, 137 mM NaCl, 1 mM MgCl2, 2.7 mM KCl, 1 µM TSA, 0.1% Igepal, 1 mg/ml Trypsin). After another 20 min of incubation, the fluorescence signal (λex = 390 nm, λem = 460 nm) was measured on a BMG LABTECH POLARstar OPTIMA plate reader (BMG Labtechnologies, Germany). […]

acetylated histone 3 = assay: Western blot, acetyl-histone 3 in HL60 cells
Experimental: LABTECH POLARstar OPTIMA plate reader (BMG Labtechnologies, Germany).
Western Blot: 2.5 x 10^5 HL60 cells were seeded in sterile 12-well plates and incubated with different concentrations of compound or DMSO for 4 h. Cells were washed with cold PBS, lysed with 90 µL SDS sample buffer (Cell Signaling, 62.5 mM Tris-HCl (pH 6.8 at 25°C), 2% w/v SDS, 10% v/v glycerol, 50 mM dithiothreitol, 0.01% bromophenol blue), shortly sonicated and heated to 95°C for 5 min. Cell extracts were used directly for SDS-PAGE or kept frozen at -20 […]
For the SDS-PAGE, 7 µL cell lysate were loaded on a 12.5% gel and the gel was run at 150V for approximately 1 h, followed by the transfer to a nitrocellulose membrane. The membrane was blocked with 5% milk in TBS-T 0.1% for 1 h at room temperature and washed (3 x 5 min) with TBS-T before adding the antibodies. Western blot analysis was performed with the following primary antibodies: anti-acetylated α-tubulin (Sigma-Aldrich, 1:1000), anti-acetyl-histone 3 (Millipore, 1:2000) and anti-GAPDH (Sigma-Aldrich, 1:5000) and secondary antibodies: anti-mouse-IgG-HRP (Sigma-Aldrich, 1:10000) and anti-rabbit IgG-HRP (Sigma- […]
Aldrich, 1:5000). The antibodies were all diluted in 3% milk in TBS-T 0.1%. Detection was performed via enhanced chemiluminescence (ECL Prime) using a FUSION-SL (PEQLAB) and the FUSION-CAPT software.
Figure 4: Western blot of acetyl-α-tubulin, acetyl-H3 and GAPDH after treatment of HL60 cells with different concentrations of 33 or DMSO for 4 h. GAPDH was used as loading control, DMSO as negative control. […]

SMILES	inhibition at 5 µM (HeLa cells; Homo sapiens, 5 μM, read-out: inhibition of cell growth at 5 μM) [%]	IC50 (HDAC in HL60 cells) [µM]	GI50 (in words) (HeLa cells)	isotype selectivity for class I HDACs in cells (western blot) (acetylated histone 3; HL60 cells, 4 h)	ac-histone 3 (acetylated histone 3; HL60 cells, 4 h, 0.0001 µM) [%]	ac-histone 3 (acetylated histone 3; HL60 cells, 4 h, 0.001 µM) [%]	ac-histone 3 (acetylated histone 3; HL60 cells, 4 h, 0.01 µM) [%]	ac-histone 3 (acetylated histone 3; HL60 cells, 4 h, 0.1 µM) [%]	levels of acetylated histone 3 with increasing inhibitor concentration (in words) (acetylated histone 3; western blot)
CCCC[C@H]1NC(=O)C[C@@H](/C=C/CCC(=O)NO)OC(=O)C[C@H](O)[C@@H]([C@@H](C)CC)NC(=O)[C@@H](C)NC1=O [compound 8]	30	–	–	–	–	–	–	–	–
CCCC[C@H]1NC(=O)C[C@@H](/C=C/CCSC(C)=O)OC(=O)C[C@H](O[Si](C)(C)C(C)(C)C)[C@@H]([C@@H](C)CC)NC(=O)[C@@H](C)NC1=O [compound 32]	–	66.3 ± 3.5	micromolar	–	–	–	–	–	–
CCCC[C@H]1NC(=O)C[C@@H](/C=C/CCSC(C)=O)OC(=O)C[C@H](O)[C@@H]([C@@H](C)CC)NC(=O)[C@@H](C)NC1=O [compound 33]	–	0.0091 ± 0.0008	nanomolar	selective inhibition of class I HDACs	1.1	0.9	1.8	4.4	increasing levels
